Data reported in US20230123334A1, “AMINO LIPID COMPOUND, PREPARATION METHOD THEREFOR, AND APPLICATION THEREOF” (SHENZHEN SHENXIN BIOTECHNOLOGY CO., LTD., priority 2020, published 2023).

Legend:
HEK293 cells [1] = test: Preliminary screening as DNA vectors, GFP transfection of HEK293 cells; assay type: cell-based; settings: HEK293 cells; lipid/DOPE liposome with 75 ng plasmid DNA (psin-EGFP-IRES-Puro); number of cells expressing GFP divided by total number of nuclei (Hoechst)
Procedure, shortened: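 HEK293 cells in DMEM/10% FBS transfected with 75 ng EGFP plasmid per well complexed with amino lipid/DOPE liposomes in pH 5.6 sodium acetate. Hoechst nuclear stain added 20-24 h post-transfection, then cells cultured another 20-24 h. Confocal imaging gives GFP-positive cells as % of total nuclei.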

HEK293 cells [2] = test: Preliminary screening as mRNA vectors, EGFP mRNA transfection of HEK293 cells; assay type: cell-based; settings: HEK293 cells, 96-well plates, EGFP mRNA 50 ng per well; percentage of GFP fluorescent cells relative to total number of cells (Hoechst)
Procedure, shortened: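 HEK293 cells in DMEM plus 10% FBS transfected in 96-well format with 50 ng EGFP mRNA per well; Lipofectamine2000 served as positive control. Read-out is the percentage of GFP-fluorescent cells among total cells, counted by Hoechst nuclear stain.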

SMILES	Absolute DNA transfection efficiency in HEK293 cells (HEK293 cells [1]) [%]	Absolute mRNA transfection efficiency in HEK293 cells (HEK293 cells [2]) [%]
CCCCCCCCCCCCNc1nc(NCCCCCC)nc(NCCCN(C)C)n1 [Compound N6N12D6]	0.3	0.1
CCCCCCCCCCCCNc1nc(NCCCCCC)nc(NCCN(CC)CC)n1 [Compound N6N12D7]	0.0	0.0
CCCCCCCCCCCCNc1nc(NCCCCCC)nc(NCCCN2CCOCC2)n1 [Compound N6N12D8]	0.0	0.1
CCCCCCCCCCCCNc1nc(NCCCCCC)nc(NCCCN2CCN(C)CC2)n1 [Compound N6N12D9]	0.0	0.0
CCCCCCCCCCCCNc1nc(NCCCCCC)nc(NCC2CCN(C)CC2)n1 [Compound N6N12D10]	0.2	0.0
CCCCCCCCCCCCCNc1nc(NCCCCCC)nc(NCCN(C)C)n1 [Compound N6N13D1]	0.0	0.0
CCCCCCCCCCCCCNc1nc(NCCCCCC)nc(NCCN2CCOCC2)n1 [Compound N6N13D2]	0.0	0.0
CCCCCCCCCCCCCNc1nc(NCCCCCC)nc(NCCN2CCCC2)n1 [Compound N6N13D3]	0.5	1.0
CCCCCCCCCCCCCNc1nc(NCCCCCC)nc(NCCN2CCCCC2)n1 [Compound N6N13D4]	0.0	0.6
CCCCCCCCCCCCCNc1nc(NCCCCCC)nc(NCCN2CCN(C)CC2)n1 [Compound N6N13D5]	0.0	0.0
CCCCCCCCCCCCCNc1nc(NCCCCCC)nc(NCCCN(C)C)n1 [Compound N6N13D6]	0.1	0.1
CCCCCCCCCCCCCNc1nc(NCCCCCC)nc(NCCN(CC)CC)n1 [Compound N6N13D7]	0.1	0.9
CCCCCCCCCCCCCNc1nc(NCCCCCC)nc(NCCCN2CCOCC2)n1 [Compound N6N13D8]	0.0	0.0
CCCCCCCCCCCCCNc1nc(NCCCCCC)nc(NCCCN2CCN(C)CC2)n1 [Compound N6N13D9]	0.0	0.0
CCCCCCCCCCCCCNc1nc(NCCCCCC)nc(NCC2CCN(C)CC2)n1 [Compound N6N13D10]	0.0	0.0
CCCCCCCCCCCCCCCNc1nc(NCCCCCC)nc(NCCN(C)C)n1 [Compound N6N15D1]	0.0	0.0
CCCCCCCCCCCCCCCNc1nc(NCCCCCC)nc(NCCN2CCOCC2)n1 [Compound N6N15D2]	0.0	0.1
CCCCCCCCCCCCCCCNc1nc(NCCCCCC)nc(NCCN2CCCC2)n1 [Compound N6N15D3]	0.6	0.3
CCCCCCCCCCCCCCCNc1nc(NCCCCCC)nc(NCCN2CCCCC2)n1 [Compound N6N15D4]	0.1	0.0
CCCCCCCCCCCCCCCNc1nc(NCCCCCC)nc(NCCN2CCN(C)CC2)n1 [Compound N6N15D5]	0.0	0.0
CCCCCCCCCCCCCCCNc1nc(NCCCCCC)nc(NCCCN(C)C)n1 [Compound N6N15D6]	0.3	0.3
CCCCCCCCCCCCCCCNc1nc(NCCCCCC)nc(NCCN(CC)CC)n1 [Compound N6N15D7]	0.0	0.0
CCCCCCCCCCCCCCCNc1nc(NCCCCCC)nc(NCCCN2CCOCC2)n1 [Compound N6N15D8]	0.3	0.0
CCCCCCCCCCCCCCCNc1nc(NCCCCCC)nc(NCCCN2CCN(C)CC2)n1 [Compound N6N15D9]	0.1	0.0
CCCCCCCCCCCCCCCNc1nc(NCCCCCC)nc(NCC2CCN(C)CC2)n1 [Compound N6N15D10]	0.2	0.7
